Assay results: patent US20100086931A1, “METHOD FOR ASSAYING ACTION OF ANTITUMOR AGENT USING DECREASE IN GENE EXPRESSION LEVEL AS INDEX” (Eisai R&D Management Co., Ltd., priority 2007, published 2010)

Test system: human colon carcinoma cell strain WiDr
Test: Microarray analysis (Human Genome U133 plus 2.0 array) of mRNA expression in WiDr cells treated with compound A
Assay type: cell-based
Conditions: 14 nM, 6 h, ratio to control
Procedure: Microarray analysis (Human Genome U133 plus 2.0 array: Affymetrix) was carried out using RNA purified from human colon carcinoma cell strain WiDr treated with 2.8 nM and 14 nM of (8E,12E,14E)-7-((4-Cycloheptylpiperazin-1-yl)carbonyl)oxy-3,6,16,21-tetrahydroxy-6,10,12,16,20-pentamethyl-18,19-epoxytricosa-8,12,14-trien-11-olide (hereinafter also referred to as “compound A”) for six hours.
WiDr cells were first suspended in RPMI1640 medium (containing 10% FBS, penicillin, and streptomycin) and seeded in a 10 cm dish (2×10^6 cells/dish). After an overnight culture in an incubator with 5% carbon dioxide gas at 37° C., the medium was changed with medium containing 2.8 nM and 14 nM of compound A or containing vehicle alone. After cultured additional six hours, TRI reagent (SIGMA) was added to cells, and the cells were harvested. RNA was purified in accordance with the protocol of TRI reagent, followed by further purification with RNeasy (QIAGEN). Absorbance at 260 nm was measured to quantify an amount of RNA.
Subsequently, single stranded cDNA synthesis, double stranded cDNA synthesis, biotin-labeled cRNA synthesis, and cRNA fragmentation in order were carried out from 5-10 μg (WiDr 10 μg, PBMC 5 μg) of total RNA from the control cells and the treated cells, by using One-Cycle Target Labeling and Control Reagents (Affymetrix). cRNA probe was used for hybridization with Human Genome U133 Plus 2.0 Array (Affymetrix). The array was then washed and stained, and luminescence intensity was measured by a scanner.
The RMA method was applied to 33 of .cel files obtained in the microarray experiment and log signal intensity at a gene level normalized with log signal intensity at a probe level was obtained. By subtracting the mean between control 1 and control 3 from the mean between log signal intensity 1 and log signal intensity 3 for each case, the log signal intensity was converted into a log signal ratio to the control. A t-test was conducted between each log signal intensity and control, and candidate genes were narrowed down in the basis of a p-value, a log signal ratio, and a signal value. Specifically, genes showing that the P value was 5% or less; the expression level in the untreated (control) is 100 or more by signal value; and the expression level when treated with both 2.8 nM and 14 nM of compound A is, compared to the control, 25% or less, were picked out. The software used is R2.2.1 (http://www.r-project.org/), affy package 1.8.1 (http://www.bioconductor.org).
Genes showing that, by the treatment with compound A, the P value was 5% or less; the expression level in the untreated (control) is 100 or more by signal value; and the expression level when treated with both 2.8 nM and 14 nM of compound A is, compared to the control, 25% or less, and results thereof were shown in Table 1. Probe ID used in Table 1 represents Human Genome U133 Plus 2.0 Array Probeset ID. In Table 1, for each gene evaluated, gene name (Gene Name), abbreviated name (Gene Symbol), accession number (Accession), alias name (Synonym), Probe set number in Human Genome U133 Plus 2.0 Array (Human Genome U133 Plus 2.0 Array Probeset ID), the expression level upon the six-hour treatment with 2.8 nM of E7107 (2.8 nM (6 h)), and the expression level upon the six-hour treatment with 14 nM of E7107 (14 nM (6 h)) were respectively shown.

Structure (SMILES): CCC(O)C(C)C1OC1CC(C)(O)/C=C/C=C(\C)C1OC(=O)CC(O)CCC(C)(O)C(OC(=O)N2CCN(C3CCCCCC3)CC2)/C=C/C1C (stereo not drawn) [E7107, (8E,12E,14E)-7-((4-Cycloheptylpiperazin-1-yl)carbonyl)oxy-3,6,16,21-tetrahydroxy-6,10,12,16,20-pentamethyl-18,19-epoxytricosa-8,12,14-trien-11-olide]
- ADPRHL2 mRNA expression level (223097_at): 0.20
- ANGEL2 mRNA expression level (221825_at): 0.17
- ARMC8 mRNA expression level (203486_s_at): 0.12
- ATP2A2 mRNA expression level (212361_s_at): 0.17
- ATP2B1 mRNA expression level (212930_at): 0.10
- ATP6V0A2 mRNA expression level (205704_s_at): 0.15
- BPTF mRNA expression level (232909_s_at): 0.05
- C1orf63 mRNA expression level (209006_s_at): 0.19
- C1orf79 mRNA expression level (223774_at): 0.14
- C1orf82 mRNA expression level (222893_s_at): 0.19
- C5orf28 mRNA expression level (219029_at): 0.05
- C6orf136 mRNA expression level (227455_at): 0.15
- C7orf23 mRNA expression level (204215_at): 0.04
- C7orf36 mRNA expression level (223433_at): 0.15
- C7orf49 mRNA expression level (220949_s_at): 0.23
- C12orf32 mRNA expression level (225837_at): 0.17
- C15orf40 mRNA expression level (1552310_at): 0.19
- C17orf80 mRNA expression level (223351_at): 0.21
- C20orf112 mRNA expression level (225224_at): 0.09
- CARD10 mRNA expression level (210026_s_at): 0.13
- CASC5 mRNA expression level (228323_at): 0.14
- CCDC14 mRNA expression level (225017_at): 0.17
- CCNE2 mRNA expression level (205034_at): 0.05
- CDC6 mRNA expression level (203967_at): 0.08
- CDC7 mRNA expression level (204510_at): 0.13
- CDNA FLJ34214 fis, clone FCBBF3021807 mRNA expression level (227087_at): 0.17
- CLDND1 mRNA expression level (208925_at): 0.09
- CLIP1 mRNA expression level (201975_at): 0.12
- DAPK1 mRNA expression level (203139_at): 0.07
- DNAJC16 mRNA expression level (212908_at): 0.15
- E2F7 mRNA expression level (228033_at): 0.06
- EHBP1 mRNA expression level (212653_s_at): 0.05
- ELL3 mRNA expression level (219518_s_at): 0.20
- ERCC3 mRNA expression level (202176_at): 0.22
- EVI1 mRNA expression level (226420_at): 0.07
- FAM86C mRNA expression level (65585_at): 0.22
- FANCL mRNA expression level (218397_at): 0.21
- FBXL5 mRNA expression level (209004_s_at): 0.05
- FCHO2 mRNA expression level (228220_at): 0.11
- FGF19 mRNA expression level (223761_at): 0.18
- FKSG44 mRNA expression level (227964_at): 0.06
- FLJ20628 mRNA expression level (221229_s_at): 0.25
- FRY mRNA expression level (204072_s_at): 0.10
- Full-length cDNA clone CS0DL007YI24 of B cells (Ramos cell line) mRNA expression level (226648_at): 0.12
- GRHL1 mRNA expression level (222830_at): 0.18
- HDAC4 mRNA expression level (204225_at): 0.21
- INTS7 mRNA expression level (222250_s_at): 0.20
- IREB2 mRNA expression level (225892_at): 0.03
- IXL mRNA expression level (225708_at): 0.14
- JAGN1 mRNA expression level (223104_at): 0.09
- JUB mRNA expression level (225806_at): 0.09
- KCNE3 mRNA expression level (227647_at): 0.16
- KIAA0323 mRNA expression level (212355_at): 0.19
- KIAA0776 mRNA expression level (212633_at): 0.15
- KIAA0859 mRNA expression level (212405_s_at): 0.09
- KIF2C mRNA expression level (211519_s_at): 0.12
- KIF21A mRNA expression level (226003_at): 0.09
- KIN mRNA expression level (205664_at): 0.19
- KLHL12 mRNA expression level (225068_at): 0.11
- LIPG mRNA expression level (219181_at): 0.11
- LOC51315 mRNA expression level (218303_x_at): 0.07
- LOC124512 mRNA expression level (225808_at): 0.16
- MASTL mRNA expression level (228468_at): 0.11
- MCM10 mRNA expression level (220651_s_at): 0.06
- METTL3 mRNA expression level (209265_s_at): 0.19
- METTL4 mRNA expression level (219698_s_at): 0.18
- MKRN1 mRNA expression level (201285_at): 0.22
- MLL2 mRNA expression level (227527_at): 0.10
- MND1 mRNA expression level (223700_at): 0.14
- MYOHD1 mRNA expression level (225947_at): 0.24
- NCOA5 mRNA expression level (225145_at): 0.17
- NIN mRNA expression level (225921_at): 0.21
- NOC3L mRNA expression level (218889_at): 0.15
- NPC1 mRNA expression level (202679_at): 0.20
- NR2C1 mRNA expression level (204791_at): 0.13
- NUPL1 mRNA expression level (223984_s_at): 0.12
- NUPL2 mRNA expression level (204003_s_at): 0.21
- ORC5L mRNA expression level (204957_at): 0.12
- PAXIP1 mRNA expression level (212825_at): 0.08
- PCGF1 mRNA expression level (210023_s_at): 0.18
- PHACTR4 mRNA expression level (226823_at): 0.15
- PHF20L1 mRNA expression level (226942_at): 0.10
- PIK3C3 mRNA expression level (204297_at): 0.22
- PLEKHA5 mRNA expression level (220952_s_at): 0.06
- PMS1 mRNA expression level (213677_s_at): 0.17
- POLD3 mRNA expression level (212836_at): 0.09
- POLR3E mRNA expression level (222490_at): 0.10
- PPM1B mRNA expression level (209296_at): 0.07
- PPWD1 mRNA expression level (213483_at): 0.14
- RAD54B mRNA expression level (219494_at): 0.10
- RBBP6 mRNA expression level (212783_at): 0.12
- RBM17 mRNA expression level (224780_at): 0.13
- RBMS1 mRNA expression level (209868_s_at): 0.11
- REPS1 mRNA expression level (224366_s_at): 0.12
- RFC4 mRNA expression level (204023_at): 0.04
- RIF1 mRNA expression level (226821_at): 0.07
- RPS6KC1 mRNA expression level (218909_at): 0.22
- SFXN1 mRNA expression level (230069_at): 0.06
- SHPRH mRNA expression level (226366_at): 0.08
- SLC17A5 mRNA expression level (223441_at): 0.18
- SLC25A19 mRNA expression level (223222_at): 0.22
- SLC37A1 mRNA expression level (218928_s_at): 0.25
- SMEK2 mRNA expression level (226230_at): 0.14
- SMUG1 mRNA expression level (218685_s_at): 0.24
- STAMBPL1 mRNA expression level (227606_s_at): 0.14
- STXBP3 mRNA expression level (203310_at): 0.14
- SYTL2 mRNA expression level (232914_s_at): 0.24
- TAF4 mRNA expression level (213090_s_at): 0.09
- TMEM177 mRNA expression level (218897_at): 0.22
- TNS3 mRNA expression level (217853_at): 0.07
- TRIM31 mRNA expression level (210159_s_at): 0.21
- TRIP4 mRNA expression level (203732_at): 0.23
- TSEN2 mRNA expression level (219581_at): 0.11
- TTC4 mRNA expression level (46167_at): 0.09
- TUBGCP3 mRNA expression level (203690_at): 0.11
- Transcribed locus mRNA expression level (230098_at): 0.13
- Transcribed locus mRNA expression level (230177_at): 0.22
- Transcribed locus mRNA expression level (235609_at): 0.17
- Transcribed locus, moderately similar to XP_518244.1 mRNA expression level (235046_at): 0.10
- Transcribed locus, strongly similar to NP_002194.1 integrin alpha 2 precursor mRNA expression level (227314_at): 0.12
- Transcribed locus, strongly similar to NP_689873.1 mRNA expression level (228638_at): 0.12
- UNC50 mRNA expression level (203583_at): 0.06
- WBP4 mRNA expression level (203598_s_at): 0.17
- WDR26 mRNA expression level (218107_at): 0.16
- WDR67 mRNA expression level (214061_at): 0.08
- ZC3HAV1L mRNA expression level (228280_at): 0.04
- ZCCHC6 mRNA expression level (220933_s_at): 0.25
- ZKSCAN1 mRNA expression level (214670_at): 0.15
- ZMIZ1 mRNA expression level (212124_at): 0.05
- ZNF518 mRNA expression level (204291_at): 0.12
- mRNA expression level, probeset 228106_at (gene name not given): 0.18
- mRNA expression level, probeset 235436_at (gene name not given): 0.19
